# Patent US20200405603A1, “COMPOSITIONS AND METHODS FOR TREATING SKIN CONDITIONS USING INFRARED LIGHT AND RESORCINOLS” (Johnson & Johnson Consumer Inc., priority 2019, published 2020)
# Tested on: lamin b1 (LMNB1) gene expression
# Assay: lamin B1 (LMNB1) gene expression assay (qPCR) in skin equivalents, with TNF-α to simulate photoaged skin
# Format: cell-based, human
# Experimental: The effects of IR light, hexyl resorcinol (HR), and combinations thereof on lamin B1 gene expression in the presence of TNF-α was tested as follows. TNF-α is known to play a primary role in the inflammation process upon ultraviolet (UV) irradiation and is stimulated by UVB.
# Three human full-thickness skin equivalents (MatTek, Ashland, Mass.) were used for each treatment. The skin equivalents were treated with one of the following: (i) 100 ng/ml TNF-α in a medium (1× phenol-red free Hank's buffered saline solution (HBSS), (ii) a placebo formulation, (iii) a hexyl resorcinol formulation containing 0.5 weight percent hexyl resorcinol (HR) in the placebo formulation, (iv) infrared (IR) light (wavelength 830 nm) at 0.5 mW/cm^2 for 10 min (i.e. fluence at 0.3 J/cm^2), or (iv) combinations of these. TNF-α was used to simulate photoaged skin.
# The placebo formulation contained the ingredients in Table 1. The hexyl resorcinol formulation contained the same ingredients plus 0.5 wt % hexyl resorcinol.
# For the combination treatments, the formulations were first topically applied to the skin equivalents and left to stand for two hours. Next, the skin equivalents were irradiated with the IR light. Then the skin equivalents were incubated with or without 100 ng/ml TNF-α in the phenol-red-free medium for 24 hours.
# Afterwards, the skin equivalents were collected in RNAlater solution (ThermoFisher Scientific, Bridgewater, N.J., USA) for RNA purification. The total RNAs were purified using a Qiagen RNeasy kit (Valencia, Calif., USA) following the manufacturer's instructions. RNA concentration was assessed using a Nanodrop 2000 spectrophotometer (ThermoFisher Scientific, Bridgewater, N.J., USA). Complementary DNA (cDNA) was performed using a High Capacity cDNA kit (ThermoFisher Scientific, Bridgewater, N.J., USA). TaqMan® gene expression assays for lamin b1 (LMNB1) and TATA-Box Binding Protein (TBP) and TaqMan® gene expression master mix from ThermoFisher Scientific (Bridgewater, N.J., USA) were used. Realtime polymerase chain reactions (qPCRs) of each treatment were performed using 5 ul of the 15 ul mixture of cDNAs pooled from three equivalent tissue replicates (i.e. mixing 5 ul of cDNA from each equivalent replicate). qPCRs were performed using a QuantStudio™ 7 Flex System (ThermoFisher Scientific, Bridgewater, N.J., USA). The RQ (relative quantitation) was calculated using the formula 2^-ΔΔCt.
# The effects of red light (wavelength 640 nm, 0.3 J/cm^2) and HR on lamin B1 gene expression in the presence of TNF-α was tested using the same method as Example 1.
# [1] = Example 2, treatment alone (no light, no other treatment)
# [2] = treatment alone (no light, no other treatment), human full-thickness skin equivalents
Molecule,change in lamin B1 gene expression (combination with red light),Induced LMNB1 (RQ) [1] [RQ],Induced LMNB1 vs Untreated Control (RQ fold changes) [1] [RQ fold changes],Difference of Induced LMNB1 vs Untreated Control (RQ fold changes) [2] [RQ fold changes],LMNB1 Induction (RQ) [2] [RQ]
"CCCCCCc1ccc(O)cc1O [hexyl resorcinol, 4-hexylresorcinol]",no substantial change,–,–,–,–
TNF-α,–,1.55,0.55,0.55,1.55
